Test results taken from publication PMC4964015 (Annals of Clinical Microbiology and Antimicrobials, 2016).
Peptide text beside a SMILES is read from it.

Experiments:
[1] = test system: S. meliloti outer membrane; assay: Outer membrane permeability, NPN fluorescence; assay type: cell-based, Sinorhizobium meliloti; details: for outer membrane permeabilization (NPN fluorescence): peptides tested at 50, 25, 12.5 and 6.25 µg/ml, 5 mM HEPES pH 7.2, 50 µg/ml = NCR335 6.4 µM, NCR247 16.6 µM, NCR001 9.5 µM, PMB 36 µM
Procedure: The cells from exponentially growing cultures were collected, washed and suspended in 5 mM HEPES buffer (pH=7.2). 80 µl NPN of 25 µM concentration and 100 µl of bacterial suspension (OD600=0.1) were pipetted into the wells of a black 96-well microtiter plate and the fluorescence were measured for 3 cycles (9 seconds/cycle) in a FLUOstar OPTIMA plate-reader (BMG Labtech). After the three cycles, 20 µl of peptide was added and the fluorescence were measured for an additional 18 cycles.

[2] = test system: rhizobia (Sinorhizobium meliloti); assay: Killing assay in phosphate buffer (number of living cells); assay type: cell-based; details: 50 µg/ml peptide in phosphate buffer for three hours
Procedure: (§1) In this study, we investigated how NCR247 and NCR335 affect the cell surface as well as the outer and inner membranes (OM and IM respectively) of the α-Proteobacterium S. meliloti, the natural target of the peptides. We compared the effect of these NCR peptides to that of Polymyxin B (PMB), which alters bacterial outer membrane permeability and then disrupts the cytoplasmic membrane of gram-negative bacteria. […] NCR247 and NCR335 inhibited the growth of rhizobia at 25 and 12 µg/ml (Minimal Inhibitory Concentration), respectively, in broth microdilution assays, and were able to decrease the number of living cells by two and four orders of magnitude, respectively, when they were used at 50 µg/ml concentration in phosphate buffer for three hours. In other—including clinically relevant—bacteria, the minimal bactericid concentration of the peptides varied between 20 and 125 µg/ml (Additional file 1). […] Prolonging the treatment for 3 h caused no further changes, cells treated for 1 and 3 h were alike. These observations were in line with reported surface corrugation of the E. coli cell envelope by NCR247 [18]. Similar study on the NCR335 treated S. meliloti cultures could not be performed as the bacteria lost their attachment to the poly-L-lysine coated muscovite mica surface.

[3] = test system: S. meliloti cells; assay: Membrane potential, DiOC2(3) red/green fluorescence (BacLight kit); assay type: cell-based, Sinorhizobium meliloti; details: BacLight Bacterial Membrane Potential Kit
From the text: For the measurements, the BacLight™ Bacterial Membrane Potential Kit (Thermo Fisher Scientific) was used according to the instructions of the manufacturer.

[4] = test system: Escherichia coli K12; assay: Minimal bactericid concentration (MBC); assay type: cell-based
[5] = test system: Pseudomonas aeruginosa; assay: Minimal bactericid concentration (MBC); assay type: cell-based
[6] = test system: Staphylococcus aureus; assay: Minimal bactericid concentration (MBC); assay type: cell-based
[7] = test system: Sinorhizobium meliloti AK631; assay: Minimal bactericid concentration (MBC); assay type: cell-based
[8] = test system: Salmonella typhimurium; assay: Minimal bactericid concentration (MBC); assay type: cell-based
[9] = test system: Listeria monocytogenes; assay: Minimal bactericid concentration (MBC); assay type: cell-based
[10] = test system: rhizobia (Sinorhizobium meliloti); assay: Broth microdilution assay (Minimal Inhibitory Concentration); assay type: cell-based; details: growth inhibition of rhizobia
Procedure: as §1

[11] = test system: Lactobacillus plantarum; assay: Minimal bactericid concentration (MBC); assay type: cell-based
[12] = test system: gram-negative and gram-positive bacteria; details: cited from earlier work
From the text: (§2) Extremely rich sources of AMPs are the plants where up to several hundreds of peptide-coding genes can be expressed in specific organs constitutively or induced locally or systematically by the attack of pathogenic microbes. […] In Medicago truncatula nodule cells infected with Sinorhizobium meliloti, hundreds ...

[13] = test system: Escherichia coli cells; details: cited from earlier work
From the text: as §2

[14] = test system: fungi; details: cited from earlier work
From the text: as §2

[15] = test system: S. meliloti cells; assay: Atomic force microscopy of immobilized cells; assay type: cell-based, Sinorhizobium meliloti
From the text: Details of the measurements and sample preparations are described in Reference 18.
Nagy K, Mikulass KR, Vegh AG, Kereszt A, Kondorosi E, Varo G, Szegletes Z: Interaction of cysteine-rich cationic antimicrobial peptides with intact bacteria and model membranes. Gen Physiol Biophys 2015, 34(2):135-144

| Compound | outer membrane permeabilization (NPN fluorescence) [1] | decrease of the number of living cells [2] | effect on membrane potential (DiOC2(3) red/green fluorescence ratio) [3] | MBC [4] | MBC [5] | MBC [6] | MBC [7] | MBC [8] | MBC [9] | Minimal Inhibitory Concentration [10] | MBC [11] | antimicrobial activity against gram-negative and gram-positive bacteria [12] | surface roughness of treated Escherichia coli cells (AFM) [13] | antimicrobial activity against fungi [14] | outer membrane damage (NPN fluorescence) ([1]; 25 µg/ml, compared with 50 µg/ml) | outer membrane damage (NPN fluorescence) ([1]; 50 µg/ml) | outer membrane damage (NPN fluorescence) ([1]; concentrations lower than 25 µg/ml) | average height of bacteria (AFM) ([15]; 25 µg/ml, average height ~600 nm) | cell surface roughness / surface alterations (AFM) ([15]; treatment for 1 h, 3 h caused no further changes) |
| --- | --- | --- | --- | --- | --- | --- | --- | --- | --- | --- | --- | --- | --- | --- | --- | --- | --- | --- | --- |
| H-RLNTTFRPLNFKMLRFWGQNRNIMKHRGQKVHFSLILSDCKTNKDCPKLRRANVRCRKSYCVPI [NCR335, cationic nodule-specific cysteine-rich peptide of Medicago truncatula, chemically synthetized, pI 11.22] | equally efficient at 50, 25 and 12.5 µg/ml but provoked a weaker OM permeabilization than PMB | four | loss of membrane potential | 50 µg/mL | 70 µg/mL | 30 µg/mL | 50 µg/mL | 50 µg/mL | 20 µg/mL | 12 µg/mL | 30 µg/mL | effective | increased surface roughness | effective | – | – | – | – | – |
| CC[C@H](C)[C@H](NC(=O)[C@H](CS)NC(=O)CNC(=O)[C@H](CC(N)=O)NC(=O)[C@@H](N)CCCNC(=N)N)C(=O)N[C@H](C(=O)N[C@@H](CC(=O)O)C(=O)N1CCC[C@H]1C(=O)N[C@@H](CCCNC(=N)N)C(=O)N[C@@H](CS)C(=O)N1CCC[C@H]1C(=O)N[C@@H](Cc1ccc(O)cc1)C(=O)N[C@@H](CCC(N)=O)C(=O)N[C@@H](CCC(N)=O)C(=O)N[C@@H](CS)C(=O)N[C@@H](CCCNC(=N)N)C(=O)N[C@@H](CCCNC(=N)N)C(=O)N1CCC[C@H]1C(=O)N[C@@H](CC(C)C)C(=O)N[C@@H](Cc1ccc(O)cc1)C(=O)N[C@@H](CS)C(=O)N[C@@H](CCCNC(=N)N)C(=O)N[C@@H](CCCNC(=N)N)C(=O)N[C@@H](CCCNC(=N)N)C(=O)O)C(C)C [NCR247] (H-RNGCIVDPRCPYQQCRRPLYCRRR-OH; C-terminus assumed) | – | two | loss of membrane potential | – | – | – | – | – | – | – | – | effective | increased surface roughness | effective | even weaker | only a mild damage | no effect | no change in the average height | increased the surface roughness |
| Polymyxin B [PMB, reference compound] | most pronounced effect | – | loss of membrane potential | – | – | – | – | – | – | – | – | – | – | – | – | – | – | – | – |
| N#CC(C#N)=NNc1cccc(Cl)c1 [CCCP, carbonyl cyanide m-chlorophenyl hydrazone, reference compound] | – | – | loss of membrane potential | – | – | – | – | – | – | – | – | – | – | – | – | – | – | – | – |
